“And” between values parts separate entries of the source, which are not always exact repeats. Equal entries are not always repeated.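 Exposure lasted 48 hours, with cells grown in 96-well plates and compounds tested at five concentrations. The concentration for 50% growth inhibition is given as GI50. TGI is the concentration that stops growth completely.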
Tests used:
Assay in all cases: NCI tumour cell line growth inhibition, 48 h
[1] = tested on: COLO 205 colon
[2] = tested on: DU-145 prostate
[3] = tested on: EKVX NSCLC
[4] = tested on: HL-60(TB) leukemia
[5] = tested on: NCI-H522 lung
[6] = tested on: OVCAR-8 ovarian
[7] = tested on: SF-268 CNS
[8] = tested on: SK-MEL-28 melanoma
[9] = tested on: U251 CNS
[10] = tested on: UACC-62 melanoma

SMILES | TGI [1] | TGI [2] | TGI [3] | TGI [4] | TGI [5] | TGI [6] | TGI [7] | TGI [8] | TGI [9] | TGI [10] | GI50 [1] | GI50 [2] | GI50 [3] | GI50 [5] | GI50 [6] | GI50 [7] | GI50 [9] | GI50 [10]
COc1cc(/C=C/C(=N\NS(=O)(=O)c2ccc(C)cc2)c2sc(NNC(C)=O)nc2C)ccc1O | > 100 µM | > 100 µM | > 100 µM | > 100 µM | > 100 µM | > 100 µM | > 100 µM | > 100 µM | > 100 µM | > 100 µM | – | – | – | – | – | – | – | –
COc1ccc(C(OCC2OC(n3cc(C)c(=O)[nH]c3=O)CC2n2cc(Cn3cc(I)c(=O)[nH]c3=O)nn2)(c2ccccc2)c2ccccc2)cc1 (stereo unspecified) | > 100 µM | > 100 µM | > 100 µM | 5.55 µM | > 100 µM | > 100 µM | > 100 µM | > 100 µM | > 100 µM | > 100 µM | – | – | – | – | – | – | – | –
Oc1cccc2c(Cl)ccnc12 | 32.6 µM | > 100 µM | > 30.8 µM | 3.36 µM | 2.44 µM | > 100 µM | > 39.3 µM | 35.9 µM | 22 µM | 8.45 µM | – | – | – | – | – | – | – | –
c1ccc(N=C2SC3=Nc4cccc5cccc(c45)N3C2=Nc2ccccc2)cc1 | > 100 µM | > 100 µM | – | > 100 µM | > 100 µM | > 100 µM | – | > 100 µM | > 100 µM | > 100 µM | – | – | – | – | – | – | – | –
Clc1cc(OC2C3CC4CC(C3)CC2C4)nc(Cl)n1 (stereo unspecified) | 34.2 µM | 39.9 µM | 29.6 µM | 12.9 µM | 27.1 µM | 61.6 µM | 49.1 µM | 29.1 µM | 31.9 µM | 24.7 µM | – | – | – | – | – | – | – | –
Oc1cc2c3c(c1)c1cc4c(cc1c[n+]3CC2)OCO4 | > 40.6 µM | > 42.9 µM | > 76.6 µM | > 27.3 µM | 4.38 µM | 14.1 µM | 8.9 µM | > 41.8 µM | – | 28.8 µM | – | – | – | – | – | – | – | –
C=C(Br)C(C)(Cl)CCC(Br)C(C)(C)Cl (stereo unspecified) | 64.6 µM | > 100 µM | > 100 µM | 80.6 µM | > 100 µM | > 100 µM | > 100 µM | > 100 µM | > 100 µM | > 100 µM | – | – | – | – | – | – | – | –
O=[N+]([O-])C(=C1NCCN1)/C(Cl)=C(\Cl)Br | 42.6 µM | > 100 µM | > 60.5 µM | 28.2 µM | 44.6 µM | > 100 µM | > 89.9 µM | > 77.7 µM | > 100 µM | > 100 µM | – | – | – | – | – | – | – | –
O=S1(=O)NC(=NCc2c[nH]c3ccccc23)N(c2ccccc2)c2ccncc21 | > 100 µM | > 100 µM | > 100 µM | > 100 µM | 92.7 µM | > 100 µM | 75.6 µM | > 100 µM | > 100 µM | > 100 µM | – | – | – | – | – | – | – | –
CCCNC1=C2CC(C)CC(OC)[C@@H](O)[C@H](C)/C=C(\C)C(OC(N)=O)C(OC)/C=C\C=C(/C)C(=O)NC(=CC1=O)C2=O (stereo partly specified) | 12.7 µM | 65.5 µM | 84.4 µM | 2.34 µM and 0.547 µM | 28.6 µM | 32.5 µM | 27.1 µM | – | > 100 µM | 41.9 µM | 0.0141 µM | 14.8 µM | 16 µM | 0.361 µM | 0.393 µM | 0.134 µM | 29.5 µM | 0.253 µM
COc1c(C)c(C/C=C(\C)CCCCO[Si](c2ccccc2)(c2ccccc2)C(C)(C)C)c(OC)c(OC)c1OC | 39.9 µM | 37.6 µM | > 31.6 µM | > 100 µM | > 100 µM | 35.6 µM | > 100 µM | > 100 µM | > 46.4 µM | > 46.4 µM | – | – | – | – | – | – | – | –
Nc1cccc2cc(Cl)cnc12 | > 100 µM | > 100 µM | > 100 µM | > 100 µM | > 100 µM | > 100 µM | > 100 µM | > 100 µM | > 100 µM | > 100 µM | – | – | – | – | – | – | – | –
N=c1n(C(=O)N2CCCC2)c2cc(Cl)ccc2n1C1=NCCN1 | > 100 µM | > 100 µM | > 100 µM | > 100 µM | > 100 µM | > 100 µM | > 100 µM | > 100 µM | > 100 µM | > 100 µM | – | – | – | – | – | – | – | –
CCOC(=O)C(NC(C)=O)(Nc1ccc(F)cc1)C(F)(F)F (stereo unspecified) | > 100 µM | > 100 µM | > 100 µM | > 100 µM | > 100 µM | > 100 µM | > 100 µM | > 100 µM | > 100 µM | > 100 µM | – | – | – | – | – | – | – | –
O=C(O)CN(CC(=O)O)C1CCCCC1N(CC(=O)O)CC(=O)NCCN=C=S (stereo unspecified) | – | > 100 µM | > 100 µM | > 100 µM | > 100 µM | > 100 µM | > 100 µM | > 100 µM | > 100 µM | > 100 µM | – | – | – | – | – | – | – | –
O=C(Cc1cccs1)N[C@@H]1C(=O)N2C(C(=O)OC(c3ccccc3)c3ccccc3)=C(CO)CS[C@H]12 | > 100 µM | > 100 µM | > 100 µM | > 100 µM | > 100 µM | > 100 µM | – | – | > 100 µM | > 100 µM | – | – | – | – | – | – | – | –
Oc1ccc(-c2nc(-c3cccnc3)c(-c3ccc(F)cc3)[nH]2)cc1 | 36.8 µM | 63.1 µM | 41.7 µM | 52 µM | – | 34.3 µM | 49.8 µM | 35.9 µM | 32.9 µM | 29.6 µM | – | – | – | – | – | – | – | –
Cc1ccc(SCC(CSCCO)OCn2cnc3c2NC(N)=NC32OCCO2)cc1 (stereo unspecified) | – | > 100 µM | > 100 µM | > 100 µM | > 100 µM | > 100 µM | > 100 µM | > 100 µM | > 100 µM | – | – | – | – | – | – | – | – | –
N#CC1=C(N)N(c2ccccc2)C(c2ccco2)C1(C#N)C#N (stereo unspecified) | 39.2 µM | 37.4 µM | 73.3 µM | 53.4 µM | 35.2 µM | 51.8 µM | > 100 µM | 38.9 µM | 43 µM | 59.3 µM | – | – | – | – | – | – | – | –
CC[C@@]1(C[C@H]2C[C@@]3(C(=O)OC)c4[nH]c5ccccc5c4CCN3C2=O)COC2(CCCCC2)O1 | > 100 µM | > 100 µM | > 100 µM | > 100 µM | > 100 µM | > 100 µM | > 100 µM | – | – | > 100 µM | – | – | – | – | – | – | – | –
O=[N+]([O-])/C(C(Cl)=C(Cl)Cl)=C(\SCc1ccccc1)N1CCCCC1 | 34.8 µM | > 100 µM | > 100 µM | 29.6 µM | 39 µM | 54.5 µM | 74.3 µM | > 100 µM | > 100 µM | 72 µM | – | – | – | – | – | – | – | –
